This passage reports inhibition results from patent US9926302B2, “Heteroaryl substituted heterocyclyl sulfones” (priority 2014, dated 2018).

The target of the assay is T1, Human CaV2.2 channels (Homo sapiens, UniProt Q00975).
T1 construct: expressed in transfected cells
T1 sequence (P54289 947-1103): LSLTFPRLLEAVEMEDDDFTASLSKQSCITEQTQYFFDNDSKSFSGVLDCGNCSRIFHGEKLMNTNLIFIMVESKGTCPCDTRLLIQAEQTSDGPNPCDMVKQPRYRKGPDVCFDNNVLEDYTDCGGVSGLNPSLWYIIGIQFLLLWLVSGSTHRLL
T1 sequence (P54289 25-946): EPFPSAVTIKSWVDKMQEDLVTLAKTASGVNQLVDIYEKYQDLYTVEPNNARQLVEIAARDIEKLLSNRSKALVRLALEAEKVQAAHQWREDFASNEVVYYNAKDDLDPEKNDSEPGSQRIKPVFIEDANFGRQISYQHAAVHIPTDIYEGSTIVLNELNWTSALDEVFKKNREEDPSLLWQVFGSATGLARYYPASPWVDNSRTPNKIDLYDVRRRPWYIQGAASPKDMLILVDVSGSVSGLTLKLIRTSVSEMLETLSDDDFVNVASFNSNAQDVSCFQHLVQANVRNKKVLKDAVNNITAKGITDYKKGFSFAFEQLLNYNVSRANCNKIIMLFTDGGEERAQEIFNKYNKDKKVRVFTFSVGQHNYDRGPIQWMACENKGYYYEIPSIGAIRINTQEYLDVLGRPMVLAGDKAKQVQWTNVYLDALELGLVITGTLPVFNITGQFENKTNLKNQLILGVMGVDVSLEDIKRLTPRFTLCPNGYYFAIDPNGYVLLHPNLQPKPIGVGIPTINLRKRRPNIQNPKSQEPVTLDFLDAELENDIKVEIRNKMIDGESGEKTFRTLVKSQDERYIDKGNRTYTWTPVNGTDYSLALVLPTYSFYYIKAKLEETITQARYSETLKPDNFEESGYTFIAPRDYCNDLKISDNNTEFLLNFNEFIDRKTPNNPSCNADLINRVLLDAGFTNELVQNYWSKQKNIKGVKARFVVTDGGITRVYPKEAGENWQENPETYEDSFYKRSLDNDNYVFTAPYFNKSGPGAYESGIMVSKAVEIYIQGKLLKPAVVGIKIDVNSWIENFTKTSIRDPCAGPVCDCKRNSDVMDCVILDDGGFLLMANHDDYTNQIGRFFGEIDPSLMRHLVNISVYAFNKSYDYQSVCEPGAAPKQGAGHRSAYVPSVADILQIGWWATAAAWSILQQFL
T1 sequence (P54284 whole entry, further chain): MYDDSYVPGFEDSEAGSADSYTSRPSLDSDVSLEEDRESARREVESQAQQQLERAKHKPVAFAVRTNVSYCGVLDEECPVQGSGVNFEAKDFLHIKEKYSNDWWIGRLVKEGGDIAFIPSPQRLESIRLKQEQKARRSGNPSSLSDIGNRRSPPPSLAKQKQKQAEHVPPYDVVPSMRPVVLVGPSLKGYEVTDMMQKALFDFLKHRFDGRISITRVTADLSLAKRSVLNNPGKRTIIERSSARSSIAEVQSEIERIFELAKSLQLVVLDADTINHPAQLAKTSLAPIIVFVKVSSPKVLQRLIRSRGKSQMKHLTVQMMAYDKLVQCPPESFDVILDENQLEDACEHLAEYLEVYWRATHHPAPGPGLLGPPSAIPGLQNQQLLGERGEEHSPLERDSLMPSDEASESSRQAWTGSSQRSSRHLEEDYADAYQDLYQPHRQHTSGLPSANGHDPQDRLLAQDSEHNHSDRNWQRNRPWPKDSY
T1 sequence (Q00975 whole entry): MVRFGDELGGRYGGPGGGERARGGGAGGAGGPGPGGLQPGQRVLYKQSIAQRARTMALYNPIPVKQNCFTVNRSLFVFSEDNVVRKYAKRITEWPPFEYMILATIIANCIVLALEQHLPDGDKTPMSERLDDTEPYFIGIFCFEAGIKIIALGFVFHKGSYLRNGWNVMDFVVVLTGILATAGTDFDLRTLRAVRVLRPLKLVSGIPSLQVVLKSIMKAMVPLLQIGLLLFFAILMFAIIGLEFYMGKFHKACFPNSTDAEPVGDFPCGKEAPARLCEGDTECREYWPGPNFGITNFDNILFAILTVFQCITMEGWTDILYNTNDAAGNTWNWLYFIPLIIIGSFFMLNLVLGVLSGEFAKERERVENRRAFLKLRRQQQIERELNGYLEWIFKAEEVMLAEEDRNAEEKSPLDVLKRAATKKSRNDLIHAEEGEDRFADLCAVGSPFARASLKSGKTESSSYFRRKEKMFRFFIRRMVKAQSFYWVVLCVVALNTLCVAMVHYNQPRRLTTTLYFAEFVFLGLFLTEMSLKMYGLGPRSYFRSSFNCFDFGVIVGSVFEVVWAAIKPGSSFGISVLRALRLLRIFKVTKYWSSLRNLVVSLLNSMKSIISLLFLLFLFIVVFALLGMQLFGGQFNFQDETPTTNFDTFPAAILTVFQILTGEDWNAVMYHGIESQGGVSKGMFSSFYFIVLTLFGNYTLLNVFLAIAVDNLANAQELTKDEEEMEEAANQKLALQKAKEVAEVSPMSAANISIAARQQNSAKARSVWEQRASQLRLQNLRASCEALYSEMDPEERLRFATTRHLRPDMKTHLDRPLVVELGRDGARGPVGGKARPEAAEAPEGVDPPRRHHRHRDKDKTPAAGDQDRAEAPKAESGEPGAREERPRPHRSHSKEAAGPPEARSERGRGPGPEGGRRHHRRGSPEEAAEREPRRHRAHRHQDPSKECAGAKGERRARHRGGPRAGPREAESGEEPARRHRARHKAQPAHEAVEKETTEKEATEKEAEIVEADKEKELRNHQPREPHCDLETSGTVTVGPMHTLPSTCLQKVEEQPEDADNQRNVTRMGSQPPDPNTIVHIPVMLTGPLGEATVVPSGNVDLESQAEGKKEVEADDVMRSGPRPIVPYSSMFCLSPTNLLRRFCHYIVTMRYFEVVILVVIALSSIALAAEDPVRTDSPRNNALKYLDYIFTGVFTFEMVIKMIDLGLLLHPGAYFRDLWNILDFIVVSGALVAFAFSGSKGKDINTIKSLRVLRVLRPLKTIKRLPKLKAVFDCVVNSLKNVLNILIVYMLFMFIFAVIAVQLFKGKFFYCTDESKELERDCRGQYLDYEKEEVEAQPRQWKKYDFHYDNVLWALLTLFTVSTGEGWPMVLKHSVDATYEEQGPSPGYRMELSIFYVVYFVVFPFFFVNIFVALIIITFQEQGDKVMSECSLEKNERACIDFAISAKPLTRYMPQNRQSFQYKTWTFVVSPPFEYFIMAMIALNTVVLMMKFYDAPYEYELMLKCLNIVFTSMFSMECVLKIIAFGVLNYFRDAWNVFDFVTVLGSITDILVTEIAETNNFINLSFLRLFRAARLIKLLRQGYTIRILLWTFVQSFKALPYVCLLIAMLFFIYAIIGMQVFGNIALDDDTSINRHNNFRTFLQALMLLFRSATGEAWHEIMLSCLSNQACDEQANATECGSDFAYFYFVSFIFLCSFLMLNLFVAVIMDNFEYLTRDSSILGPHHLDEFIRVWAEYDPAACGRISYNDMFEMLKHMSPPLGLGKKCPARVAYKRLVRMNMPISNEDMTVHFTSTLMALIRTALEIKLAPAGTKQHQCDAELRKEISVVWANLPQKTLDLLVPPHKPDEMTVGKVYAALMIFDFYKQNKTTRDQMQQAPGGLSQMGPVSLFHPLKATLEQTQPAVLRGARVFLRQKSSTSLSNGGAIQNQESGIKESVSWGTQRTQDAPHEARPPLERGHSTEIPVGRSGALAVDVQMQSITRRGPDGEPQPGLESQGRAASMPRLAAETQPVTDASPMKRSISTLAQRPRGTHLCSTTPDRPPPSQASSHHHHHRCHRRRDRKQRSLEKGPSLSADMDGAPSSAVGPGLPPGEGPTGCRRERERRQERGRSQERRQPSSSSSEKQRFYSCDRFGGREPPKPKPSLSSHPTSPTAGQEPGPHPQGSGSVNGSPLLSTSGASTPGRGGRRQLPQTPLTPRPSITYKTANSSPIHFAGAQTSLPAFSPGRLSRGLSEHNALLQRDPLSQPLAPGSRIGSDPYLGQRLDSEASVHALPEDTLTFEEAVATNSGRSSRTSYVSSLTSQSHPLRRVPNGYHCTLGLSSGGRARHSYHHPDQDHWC
Put plainly: Fluorescence assay for CaV2.2 channels using potassium depolarization to induce channel opening (FLIPR, Fluo 4). The class given is cell-based. The conditions noted are these: HEK293, 3 μM test compound; alternative assay buffer 30 mM KCl (inactivated channel state); HEK293 cells stably expressing human CaV2.2; read-out: Activity Category: %-Inhib (CaV2.2) @3 μM @30 mM KCl. The source says: In the process, the Ca^2+ influx is quantified in the FLIPR assay with the aid of a Ca^2+-sensitive dye (type Fluo-4, Molecular Probes Europe BV, Leiden, the Netherlands) in a fluorescent imaging plate reader (FLIPR 3, Molecular Devices, Sunnyvale, USA), as described hereinafter.
2.1 Fluorescence Assay for CaV2.2 Channels Using Potassium Depolarization to Induce Channel Opening
Human CaV2.2 channels were stably expressed in HEK293 cells together with alpha2-delta and beta subunits of voltage gated calcium channels. In addition, an inwardly rectifying potassium channel (Kir2.3) was stably expressed in these cells to augment control of the cell membrane potential by the concentration of extracellular potassium ions. Raise of the extracellular potassium concentration leads to depolarization of the membrane potential and thus regulates the voltage dependent state of CaV2.2 channels. For preparation, cells were seeded in black poly-D-lysine coated 96-well plates (Becton Dickinson, Biocoat 4640) in 100 μL medium [500 mL DMEM/F-12 plus Glutamax (Invitrogen 31331-093) plus 5.5 mL MEM NEAA 100× (Invitrogen 11140-035) plus 50 mL FBS decomplemented (Invitrogen 10270-106) plus 200 μg/mL Geneticin (Invitrogen 10131-027) plus 50 μg/mL Hygromycin B (Invitrogen 10687-010) plus 2 μg/mL Blasticidin (anti-bl5b Invivo-Gen) plus 0.2 μg/mL Puromycin (A 11138-03)] at a cell density of 30.000 cells per well. Plates were incubated at 37° C. (5% CO2) for 20 to 23 h. On the day of experiment medium was discarded and cells were loaded with Fluo 4 by addition of 100 μL of basic assay buffer (10 mM HEPES, 1 mM KCl, 149 mM NaCl, 0.8 mM CaCl2, 1.7 mM MgCl2, 10 mM Glucose, 0.1% BSA. pH 7.4) containing 2 μM Fluo 4 (Molecular Probes; F-14201), 0.01% pluronic acid (Molecular Probes; P-6866) and 2.5 mM probenecid (Molecular Probes; P36400). Cells were incubated in the dark at 25° C. for 60 min. Then dye containing buffer was discarded and 100 μL basic (1 mM KCl) or alternative (30 mM KCl) assay buffer was added. The alternative assay buffer contained altered concentrations of KCl (30 mM) and NaCl (120 mM) and was used in order to promote the inactivated channel state. After that 25 μL of basic or alternative assay buffer with or without test compound were added and cells were incubated again in the dark at 25° C. for 15 min. Fluorescence intensity was measured on a FLIPR 3 instrument (Molecular Devices Corp., Sunnyvale, Calif.) with excitation at 480 nm and emission at 535 nm. After continuously reading fluorescence for 30 sec, 50 μL of basic assay buffer containing 210 mM KCl (NaCl omitted) were added for depolarization. Peak fluorescent signal intensity was determined and the amplitude of the peak signal, normalized to base line, was used to measure channel inhibition by test compounds.
Consider `CCC1(S(=O)(=O)c2cccc(C(F)(F)F)c2)CCOC(c2nnc(C(F)(F)F)o2)C1` (racemic) [SC-242, 2-[4-Ethyl-4-[[3-(trifluoromethyl)phenyl]sulfonyl]-tetrahydro-pyran-2-yl]-5-(trifluoromethyl)-[1,3,4]oxadiazole], for which the inhibition at 3 µM was in the range of 40 to 75%.

With `COc1cc(OC)c(C2CC(C)(S(=O)(=O)c3cccc(C(F)(F)F)c3)CCO2)cn1` (racemic) [SC-247, 2,4-Dimethoxy-5-[4-methyl-4-[[3-(trifluoromethyl)phenyl]sulfonyl]-tetrahydro-pyran-2-yl]-pyridine], the inhibition at 3 µM lay in the range of 75 to 95%.

As to `COc1cc(C)c(C2CC(C)(S(=O)(=O)c3cccc(C(F)(F)F)c3)CCO2)cn1` (racemic) [SC-252, 2-Methoxy-4-methyl-5-[4-methyl-4-[[3-(trifluoromethyl)phenyl]sulfonyl]-tetrahydro-pyran-2-yl]-pyridine], the inhibition at 3 µM was in the range of 75 to 95%.

Regarding `COc1cc(F)c(C2CC(C)(S(=O)(=O)c3cccc(C(F)(F)F)c3)CCO2)cn1` (racemic) [SC-259, 4-Fluoro-2-methoxy-5-[4-methyl-4-[[3-(trifluoromethyl)phenyl]sulfonyl]-tetrahydro-pyran-2-yl]-pyridine], the inhibition at 3 µM was over 95%.

With `CC(C)Oc1ccc(C2CC(C)(S(=O)(=O)c3cccc(C(F)(F)F)c3)CCO2)cn1` (racemic) [SC-302, 2-Isopropoxy-5-[4-methyl-4-[[3-(trifluoromethyl)phenyl]sulfonyl]-tetrahydro-pyran-2-yl]-pyridine], the inhibition at 3 µM is over 95%.

With `CCC1(S(=O)(=O)c2cccc(C(F)(F)F)c2)CCOC(c2cccc(C)n2)C1` (racemic) [SC-303, 2-[4-Ethyl-4-[[3-(trifluoromethyl)phenyl]sulfonyl]-tetrahydro-pyran-2-yl]-6-methyl-pyridine], the inhibition at 3 µM lay within 75 to 95%.

As to `CC1(S(=O)(=O)c2cccc(C(F)(F)F)c2)CCOC(c2ccc(C(F)(F)F)nc2)C1` (racemic) [SC-306, 5-[4-Methyl-4-[[3-(trifluoromethyl)phenyl]sulfonyl]-tetrahydro-pyran-2-yl]-2-(trifluoromethyl)-pyridine], the inhibition at 3 µM was over 95%.

Consider `CCC1(S(=O)(=O)c2cccc(C(F)(F)F)c2)CCOC(c2cccnc2C)C1` (racemic) [SC-314, 3-[4-Ethyl-4-[[3-(trifluoromethyl)phenyl]sulfonyl]-tetrahydro-pyran-2-yl]-2-methyl-pyridine], for which the inhibition at 3 µM lay in the range of 40 to 75%.

With `CCC1(S(=O)(=O)c2cccc(C(F)(F)F)c2)CCOC(c2ccc(C)nc2C)C1` (racemic) [SC-319, 3-[4-Ethyl-4-[[3-(trifluoromethyl)phenyl]sulfonyl]-tetrahydro-pyran-2-yl]-2,6-dimethyl-pyridine], the inhibition at 3 µM fell in the range of 40 to 75%.

As to `CC1(S(=O)(=O)c2cccc(C(F)(F)F)c2)CCOC(c2cnc(C3CC3)cn2)C1` (racemic) [SC-328, 2-Cyclopropyl-5-[4-methyl-4-[[3-(trifluoromethyl)phenyl]sulfonyl]-tetrahydro-pyran-2-yl]-pyrazine], the inhibition at 3 µM was over 95%.

In the case of `CCC1(S(=O)(=O)c2cccc(C(F)(F)F)c2)CCOC(c2cnc(C3CC3)cn2)C1` (racemic) [SC-333, 2-Cyclopropyl-5-[4-ethyl-4-[[3-(trifluoromethyl)phenyl]sulfonyl]-tetrahydro-pyran-2-yl]-pyrazine], the inhibition at 3 µM is over 95%.

As for `CC1(S(=O)(=O)c2cccc(C(F)(F)F)c2)CCOC(c2ccc(Br)nc2)C1` (racemic) [SC-337, 2-Bromo-5-[4-methyl-4-[[3-(trifluoromethyl)phenyl]sulfonyl]-tetrahydro-pyran-2-yl]-pyridine], the inhibition at 3 µM is over 95%.

Regarding `CC1(S(=O)(=O)c2cccc(C(F)(F)F)c2)CCOC(c2ncc(C(F)(F)F)cc2Cl)C1` (racemic) [SC-340, 3-Chloro-2-(4-methyl-4-((3-(trifluoromethyl)phenyl)sulfonyl)tetrahydro-2H-pyran-2-yl)-5-(trifluoromethyl)pyridine], the inhibition at 3 µM is over 95%.

With `Cc1cccc(C2CC(S(=O)(=O)c3cccc(C(F)(F)F)c3)CCO2)n1` (racemic) [SC-341, 2-methyl-6-[4-[[3-(trifluoromethyl)phenyl]sulfonyl]-tetrahydro-pyran-2-yl]-pyridine], the inhibition at 3 µM is 40 to 75%.

As to `Cn1nc(C(F)(F)F)cc1C1CC(C)(S(=O)(=O)c2cccc(C(F)(F)F)c2)CCO1` (racemic) [SC-344, 1-Methyl-5-[4-methyl-4-[[3-(trifluoromethyl)phenyl]sulfonyl]-tetrahydro-pyran-2-yl]-3-(trifluoromethyl)-1H-pyrazole], the inhibition at 3 µM was 75 to 95%.

In the case of `CC1(S(=O)(=O)c2cccc(C(F)(F)F)c2)CCOC(c2ccc(C3CC3)nc2)C1` (racemic) [SC-347, 2-Cyclopropyl-5-[4-methyl-4-[[3-(trifluoromethyl)phenyl]sulfonyl]-tetrahydro-pyran-2-yl]-pyridine], the inhibition at 3 µM is over 95%.

For `CC1(S(=O)(=O)c2cccc(C(F)(F)F)c2)CCOC(c2cccc(C(F)(F)F)n2)C1` (racemic) [SC-351, 2-[4-Methyl-4-[[3-(trifluoromethyl)phenyl]sulfonyl]-tetrahydro-pyran-2-yl]-6-(trifluoromethyl)-pyridine], the inhibition at 3 µM was over 95%.

As to `CC1(S(=O)(=O)c2cccc(C(F)(F)F)c2)CCOC(c2ccc(N3CCCC3)nc2)C1` (racemic) [SC-406, 5-[4-Methyl-4-[[3-(trifluoromethyl)phenyl]sulfonyl]-tetrahydro-pyran-2-yl]-2-pyrrolidin-1-yl-pyridine], the inhibition at 3 µM was over 95%.

For `CC1(S(=O)(=O)c2cccc(C(F)(F)F)c2)CCOC(c2ccc(-n3cncn3)nc2)C1` (racemic) [SC-407, 5-[4-Methyl-4-[[3-(trifluoromethyl)phenyl]sulfonyl]-tetrahydro-pyran-2-yl]-2-(1H-[1,2,4]triazol-1-yl)-pyridine], the inhibition at 3 µM was in the range of 75 to 95%.

For the compound `CNc1ccc(C2CC(C)(S(=O)(=O)c3cccc(C(F)(F)F)c3)CCO2)cn1` (racemic) [SC-412, Methyl-[5-[4-methyl-4-[[3-(trifluoromethyl)phenyl]sulfonyl]-tetrahydro-pyran-2-yl]-pyridin-2-yl]-amine], the inhibition at 3 µM fell in the range of 75 to 95%.

Consider `CC1(S(=O)(=O)c2cccc(C(F)(F)F)c2)CCOC(c2ccc(OC(F)F)nc2)C1` (racemic) [SC-417, 2-(Difluoro-methoxy)-5-[4-methyl-4-[[3-(trifluoromethyl)phenyl]sulfonyl]-tetrahydro-pyran-2-yl]-pyridine], for which the inhibition at 3 µM is over 95%.

Take `COCCOc1ccc(C2CC(C)(S(=O)(=O)c3cccc(C(F)(F)F)c3)CCO2)cn1` (racemic) [SC-420, 2-(2-Methoxy-ethoxy)-5-[4-methyl-4-[[3-(trifluoromethyl)phenyl]sulfonyl]-tetrahydro-pyran-2-yl]-pyridine]: the inhibition at 3 µM was 75 to 95%.

In the case of `Cn1nc(S(C)(=O)=O)cc1C1CC(C)(S(=O)(=O)c2cccc(C(F)(F)F)c2)CCO1` (racemic) [SC-433, 1-Methyl-3-methylsulfonyl-5-[4-methyl-4-[[3-(trifluoromethyl)phenyl]sulfonyl]-tetrahydro-pyran-2-yl]-1H-pyrazole], the inhibition at 3 µM was in the range of 40 to 75%.

In the case of `Cn1nc(C2CC2)cc1C1CC(C)(S(=O)(=O)c2cccc(C(F)(F)F)c2)CCO1` (racemic) [SC-434, 3-Cyclopropyl-1-methyl-5-[4-methyl-4-[[3-(trifluoromethyl)phenyl]sulfonyl]-tetrahydro-pyran-2-yl]-1H-pyrazole], the inhibition at 3 µM is 75 to 95%.

For the compound `CC1(S(=O)(=O)c2cccc(C(F)(F)F)c2)CCOC(c2ncc(C3CC3)cc2Cl)C1` (racemic) [SC-435, 3-Chloro-5-cyclopropyl-2-[4-methyl-4-[[3-(trifluoromethyl)phenyl]sulfonyl]-tetrahydro-pyran-2-yl]-pyridine], the inhibition at 3 µM is over 95%.

On to `CC1(S(=O)(=O)c2cccc(C(F)(F)F)c2)CCOC(c2ncc(OC(F)F)cc2Cl)C1` (racemic) [SC-438, 3-Chloro-5-(difluoro-methoxy)-2-[4-methyl-4-[[3-(trifluoromethyl)phenyl]sulfonyl]-tetrahydro-pyran-2-yl]-pyridine], for which the inhibition at 3 µM is over 95%.
